From ChEMBL document CHEMBL1139511, “AFMoC enhances predictivity of 3D QSAR: a case study with DOXP-reductoisomerase” (J Med Chem, 2005)

Target: T1, 1-deoxy-D-xylulose 5-phosphate reductoisomerase (Escherichia coli K-12, UniProt P45568)
T1 sequence (P45568 whole entry): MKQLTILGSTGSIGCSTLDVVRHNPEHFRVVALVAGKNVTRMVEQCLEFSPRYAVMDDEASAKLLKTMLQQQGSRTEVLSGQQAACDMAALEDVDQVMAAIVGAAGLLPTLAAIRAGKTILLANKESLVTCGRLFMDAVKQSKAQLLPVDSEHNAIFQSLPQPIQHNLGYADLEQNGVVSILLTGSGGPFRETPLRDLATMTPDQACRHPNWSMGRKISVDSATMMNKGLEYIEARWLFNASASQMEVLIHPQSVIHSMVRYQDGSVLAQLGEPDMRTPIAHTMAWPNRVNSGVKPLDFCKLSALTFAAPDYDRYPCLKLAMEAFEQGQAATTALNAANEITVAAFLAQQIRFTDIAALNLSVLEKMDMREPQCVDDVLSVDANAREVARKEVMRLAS
Assay: Inhibitory concentration against DOXP reductoisomerase

| Structure (SMILES) | IC50 [µM] |
| --- | --- |
| CCC(CCN(O)C=O)P(=O)(O)O (stereo unspecified) | 1.78 |
| CCCC(CCN(O)C(C)=O)P(=O)(O)O (stereo unspecified) | 6.61 |
| CS(=O)(=O)N(O)CCCP(=O)(O)O | 38 |
| O=C(CNCP(=O)(O)O)NO | 16.2 |
| CC(C)C(CCN(O)C=O)P(=O)(O)O (stereo unspecified) | 6.61 |
| NCCC(=O)N(O)CCCP(=O)(O)O | 15.8 |
| CC(O)CC(=O)N(O)CCCP(=O)(O)O (stereo unspecified) | 50.1 |
| O=C(N(O)CCCP(=O)(O)O)C(F)(F)F | 14.1 |
| CCOC(=O)C(=O)N(O)C1CCC(P(=O)(O)O)C1 (stereo unspecified) | 15.8 |
| CC(=O)N(O)C/C=C/P(=O)(O)O | 0.0646 |
| O=C(NCC(=O)N(O)CCCP(=O)(O)O)c1ccc(OC(F)(F)F)cc1 | 5.13 |
| CN(CC(=O)NO)CP(=O)(O)O | 31.6 |
| O=C(CCCOc1ccccc1)NCC(=O)N(O)CCCP(=O)(O)O | 1 |
| O=C(CCCP(=O)(O)O)NO | 0.257 |
| CC(C)CC(=O)N(O)CCCP(=O)(O)O | 24 |
| O=C(C(Cl)Cl)N(O)CCCP(=O)(O)O | 0.178 |
| CC(C)(C)C(=O)N(O)CCCP(=O)(O)O | 11 |
| CCC(C(=O)NCC(=O)N(O)CCCP(=O)(O)O)c1ccccc1 (stereo unspecified) | 20 |
| COc1ccc(CC(=O)NCC(=O)N(O)CCCP(=O)(O)O)cc1OC | 14.1 |
| CCCCCCCC(=O)N(O)CCCP(=O)(O)O | 1.7 |
| O=C(c1ccccc1O)N(O)C1CCC(P(=O)(O)O)C1 (stereo unspecified) | 50.1 |

| Structure (SMILES) | IC50 [µM] |
| --- | --- |
| O=C(c1ccc(-c2ccccc2)cc1)N(O)CCCP(=O)(O)O | 2.4 |
| NCCCCCC(=O)N(O)CCCP(=O)(O)O | 40.7 |
| O=C(c1ccccc1O)N(O)CCCP(=O)(O)O | 1.82 |
| CCCC(CCN(O)C=O)P(=O)(O)O (stereo unspecified) | 8.13 |
| O=C(C1CC1)N(O)CCCP(=O)(O)O | 36.3 |
| CC(=O)N(O)CC(C)CP(=O)(O)O (stereo unspecified) | 0.646 |
| O=C(NCC(=O)N(O)CCCP(=O)(O)O)C1CC1 | 7.08 |
| O=C(CCc1ccccc1)N(O)CCCP(=O)(O)O | 50.1 |
| CC(=O)N(O)CCCP(=O)(O)O [FR-900098] | 0.0282 |
| NC(CCP(=O)(O)O)C(=O)NO (stereo unspecified) | 9.77 |
| O=C(c1cccc2ccccc12)N(O)CCCP(=O)(O)O | 0.229 |
| COC(=O)c1ccccc1C(=O)N(O)CCCP(=O)(O)O | 100 |
| NCCCC(=O)N(O)CCCP(=O)(O)O | 25.7 |
| O=C(CN(Cc1ccccc1)CP(=O)(O)O)NO | 1.82 |
| CC(=O)N(O)CCC(C)P(=O)(O)O (stereo unspecified) | 0.0537 |
| O=C(c1ccccc1)N(O)CCCP(=O)(O)O | 0.1 |
| CC(=O)N(O)C1CCC(P(=O)(O)O)C1 (stereo unspecified) | 2.34 |
| CCC(CCN(O)C(C)=O)P(=O)(O)O (stereo unspecified) | 0.708 |
| O=CN(O)CC(Cc1ccccc1)CP(=O)(O)O (stereo unspecified) | 6.46 |
| O=C(CCCc1c[nH]c2ccccc12)NCC(=O)N(O)CCCP(=O)(O)O | 17 |
